Measurements published in PMC3752901 (Clinical cancer research : an official journal of the …, 2013).

What was measured:
Blood cell partitioning = assay type: in vitro ADME, mouse
[1] = Plasma pharmacokinetics in wildtype and Abcc4; conditions: for clearance / Cmax / Tmax: male, C57BL/6, mouse, plasma, 10 mg/kg; for clearance: CL
mOct1 = molecular target: T1, mOct1 (Mus musculus, UniProt O08966); experiment: Uptake in HEK293 cells expressing mOct1; assay type: in vitro ADME; conditions: HEK293, 1 μM
T1 sequence (O08966 1-556): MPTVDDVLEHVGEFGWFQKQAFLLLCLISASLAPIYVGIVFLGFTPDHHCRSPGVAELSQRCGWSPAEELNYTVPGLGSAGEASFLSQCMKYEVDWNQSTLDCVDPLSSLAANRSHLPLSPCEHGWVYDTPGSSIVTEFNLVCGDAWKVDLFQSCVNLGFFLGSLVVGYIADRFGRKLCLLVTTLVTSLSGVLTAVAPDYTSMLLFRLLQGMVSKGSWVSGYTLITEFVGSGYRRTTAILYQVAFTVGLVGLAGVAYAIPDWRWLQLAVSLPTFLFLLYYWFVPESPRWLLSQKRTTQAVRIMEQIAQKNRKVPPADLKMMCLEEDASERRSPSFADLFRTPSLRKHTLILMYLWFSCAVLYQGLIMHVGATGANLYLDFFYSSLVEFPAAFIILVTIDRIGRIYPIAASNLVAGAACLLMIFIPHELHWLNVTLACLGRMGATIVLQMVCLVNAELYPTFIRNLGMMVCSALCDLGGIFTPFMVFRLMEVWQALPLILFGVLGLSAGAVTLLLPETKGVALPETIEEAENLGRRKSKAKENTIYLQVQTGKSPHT

ABCC3 (MRP3) = ABCC3 (MRP3) (Homo sapiens, UniProt O15438); experiment: Uptake into inside-out Sf9 vesicles expressing ABCC3; assay type: in vitro ADME; conditions: same experimental conditions as ABCC4 vesicles
Chain of ABCC3 (MRP3) (O15438 whole entry): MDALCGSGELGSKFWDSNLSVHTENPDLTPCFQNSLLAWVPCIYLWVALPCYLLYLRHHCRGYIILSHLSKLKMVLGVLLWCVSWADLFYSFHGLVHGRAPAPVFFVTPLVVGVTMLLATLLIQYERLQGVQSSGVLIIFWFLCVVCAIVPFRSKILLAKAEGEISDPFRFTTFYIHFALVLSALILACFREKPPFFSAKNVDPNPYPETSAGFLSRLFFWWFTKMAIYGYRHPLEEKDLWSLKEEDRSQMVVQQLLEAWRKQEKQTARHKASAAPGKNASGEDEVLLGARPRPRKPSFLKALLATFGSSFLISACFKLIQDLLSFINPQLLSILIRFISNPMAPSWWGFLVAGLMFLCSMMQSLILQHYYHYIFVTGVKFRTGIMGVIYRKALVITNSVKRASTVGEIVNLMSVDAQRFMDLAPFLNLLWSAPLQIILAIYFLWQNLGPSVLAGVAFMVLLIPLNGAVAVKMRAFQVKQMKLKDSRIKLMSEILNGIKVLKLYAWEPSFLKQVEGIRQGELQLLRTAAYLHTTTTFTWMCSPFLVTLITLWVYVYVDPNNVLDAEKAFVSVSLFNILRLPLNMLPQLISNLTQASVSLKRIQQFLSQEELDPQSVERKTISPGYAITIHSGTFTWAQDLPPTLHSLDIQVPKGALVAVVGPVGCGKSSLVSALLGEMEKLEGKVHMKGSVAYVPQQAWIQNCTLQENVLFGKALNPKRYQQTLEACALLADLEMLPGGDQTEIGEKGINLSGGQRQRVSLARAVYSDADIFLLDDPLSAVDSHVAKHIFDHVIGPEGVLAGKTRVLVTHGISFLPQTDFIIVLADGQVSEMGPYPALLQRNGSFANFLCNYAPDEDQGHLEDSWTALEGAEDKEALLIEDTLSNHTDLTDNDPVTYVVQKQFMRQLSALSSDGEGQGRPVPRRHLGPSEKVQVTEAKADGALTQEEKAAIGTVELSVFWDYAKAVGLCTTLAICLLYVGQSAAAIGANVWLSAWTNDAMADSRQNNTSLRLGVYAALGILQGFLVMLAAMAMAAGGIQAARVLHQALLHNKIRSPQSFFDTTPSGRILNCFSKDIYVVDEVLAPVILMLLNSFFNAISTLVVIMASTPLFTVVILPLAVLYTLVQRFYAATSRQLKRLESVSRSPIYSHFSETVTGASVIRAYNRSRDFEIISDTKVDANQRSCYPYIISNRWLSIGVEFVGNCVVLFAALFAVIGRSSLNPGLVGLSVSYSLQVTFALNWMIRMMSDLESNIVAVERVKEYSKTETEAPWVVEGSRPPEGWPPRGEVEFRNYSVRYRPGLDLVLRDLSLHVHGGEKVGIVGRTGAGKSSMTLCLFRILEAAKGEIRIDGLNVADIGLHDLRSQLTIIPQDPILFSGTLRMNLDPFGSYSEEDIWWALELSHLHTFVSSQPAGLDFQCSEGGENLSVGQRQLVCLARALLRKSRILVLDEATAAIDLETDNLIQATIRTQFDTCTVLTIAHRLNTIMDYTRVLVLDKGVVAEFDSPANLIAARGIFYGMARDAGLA

[2] = human, oral administration; cited from earlier work
mouse Abcc4 = molecular target: T2, mouse Abcc4 (Mus musculus, UniProt E9Q236); experiment: Accumulation/efflux in Saos-2 cells transfected with Abcc4; conditions: 100 μM, 4-h incubation
T2 sequence (E9Q236 1-1325): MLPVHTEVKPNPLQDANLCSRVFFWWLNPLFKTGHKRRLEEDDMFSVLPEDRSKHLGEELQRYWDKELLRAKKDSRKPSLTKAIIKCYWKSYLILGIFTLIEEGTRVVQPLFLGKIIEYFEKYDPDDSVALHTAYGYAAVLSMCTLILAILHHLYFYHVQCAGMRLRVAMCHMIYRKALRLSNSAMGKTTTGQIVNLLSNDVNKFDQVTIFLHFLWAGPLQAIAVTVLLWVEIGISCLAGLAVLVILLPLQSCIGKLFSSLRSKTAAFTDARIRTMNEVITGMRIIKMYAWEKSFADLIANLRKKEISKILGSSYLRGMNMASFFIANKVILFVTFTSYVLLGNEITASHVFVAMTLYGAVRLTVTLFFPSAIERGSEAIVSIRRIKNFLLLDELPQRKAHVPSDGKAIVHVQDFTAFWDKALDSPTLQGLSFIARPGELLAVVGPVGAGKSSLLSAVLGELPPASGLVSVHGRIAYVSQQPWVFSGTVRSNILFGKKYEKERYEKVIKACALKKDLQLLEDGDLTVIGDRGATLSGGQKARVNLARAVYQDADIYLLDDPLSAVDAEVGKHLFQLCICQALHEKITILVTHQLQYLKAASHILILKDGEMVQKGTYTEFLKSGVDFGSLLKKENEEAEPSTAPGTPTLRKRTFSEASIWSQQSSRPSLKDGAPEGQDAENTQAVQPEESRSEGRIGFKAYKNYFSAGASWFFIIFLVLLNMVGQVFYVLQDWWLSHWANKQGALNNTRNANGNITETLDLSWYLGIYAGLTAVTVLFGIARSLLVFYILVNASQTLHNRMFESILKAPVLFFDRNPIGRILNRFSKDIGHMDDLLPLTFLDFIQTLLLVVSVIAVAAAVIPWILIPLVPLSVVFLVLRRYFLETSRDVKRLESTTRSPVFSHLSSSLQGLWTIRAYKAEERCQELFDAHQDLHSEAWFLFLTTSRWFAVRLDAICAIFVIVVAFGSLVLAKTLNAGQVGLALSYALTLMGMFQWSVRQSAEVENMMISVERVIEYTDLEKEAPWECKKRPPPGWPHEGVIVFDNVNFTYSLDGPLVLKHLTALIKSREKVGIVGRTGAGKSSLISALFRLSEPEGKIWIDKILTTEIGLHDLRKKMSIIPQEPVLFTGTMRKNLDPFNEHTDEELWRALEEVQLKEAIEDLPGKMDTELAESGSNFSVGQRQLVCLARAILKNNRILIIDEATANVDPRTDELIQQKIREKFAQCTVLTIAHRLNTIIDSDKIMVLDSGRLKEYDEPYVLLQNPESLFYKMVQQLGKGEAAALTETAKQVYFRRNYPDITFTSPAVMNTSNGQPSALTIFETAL

mOct2 = molecular target: T3, mOct2 (Mus musculus, UniProt O70577); experiment: Uptake in HEK293 cells expressing mOct2; assay type: in vitro ADME; conditions: HEK293, 1 μM
T3 sequence (O70577 1-553): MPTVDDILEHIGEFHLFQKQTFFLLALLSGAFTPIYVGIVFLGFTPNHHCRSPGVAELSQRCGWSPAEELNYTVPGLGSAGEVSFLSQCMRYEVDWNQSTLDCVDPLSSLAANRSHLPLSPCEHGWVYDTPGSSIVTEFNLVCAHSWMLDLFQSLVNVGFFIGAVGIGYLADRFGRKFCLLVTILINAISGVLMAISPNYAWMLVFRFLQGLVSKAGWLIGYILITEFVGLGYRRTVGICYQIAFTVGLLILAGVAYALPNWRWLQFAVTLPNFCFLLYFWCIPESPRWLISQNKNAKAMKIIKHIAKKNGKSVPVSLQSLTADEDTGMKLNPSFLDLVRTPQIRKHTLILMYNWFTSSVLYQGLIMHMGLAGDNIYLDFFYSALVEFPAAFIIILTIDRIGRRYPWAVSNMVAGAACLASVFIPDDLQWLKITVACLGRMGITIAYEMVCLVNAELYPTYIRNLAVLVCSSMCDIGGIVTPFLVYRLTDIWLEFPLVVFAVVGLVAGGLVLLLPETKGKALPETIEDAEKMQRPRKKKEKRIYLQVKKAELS

[3] = iv, i.v. 10 mg/kg, Abcc4(−/−) mice
[4] = iv, i.v. 10 mg/kg, wildtype mice
[5] = po, oral 10 mg/kg, Abcc4(−/−) mice
[6] = po, oral 10 mg/kg, wildtype mice

Blood cell partitioning (Blood cell partitioning; Abcc4(−/−) mice): 36.1 ± 2.86% | Blood cell partitioning (Blood cell partitioning; wildtype mice): 33.0 ± 1.04% | clearance [1, 3]: 41.9 mL/min/kg | clearance [1, 4]: 49.6 mL/min/kg | Cmax [1, 3]: 3460 ng/mL | Cmax [1, 4]: 3390 ng/mL | Cmax [1, 5]: 48.1 ± 16.5 ng/mL | Cmax [1, 6]: 182 ± 93.8 ng/mL | Tmax [1, 5]: 2.19 ± 1.06 h | Tmax [1, 6]: 0.306 ± 0.223 h | Ka ([1]; oral 10 mg/kg, Abcc4(−/−) mice): 2.49 ± 0.92 h⁻¹ | Ka ([1]; oral 10 mg/kg, wildtype mice): 34.3 ± 6.85 h⁻¹ | intracellular accumulation on overexpression of Oct1 (mOct1): did not alter intracellular accumulation | accumulation in ABCC3 vesicles compared to control (ABCC3 (MRP3)): 1.3 fold | transport by mouse Abcc4 (accumulation in Saos-2 cells overexpressing Abcc4 compared to control cells) (mouse Abcc4): significantly reduced accumulation | intracellular accumulation on overexpression of Oct2 (mOct2): did not alter intracellular accumulation
SMILES: Cc1nc(Nc2ncc(C(=O)Nc3c(C)cccc3Cl)s2)cc(N2CCN(CCO)CC2)n1 [dasatinib, Dasatinib]
unchanged drug as share of the dose recovered in feces [2]: 19% | unchanged drug as share of the dose recovered in urine [2]: less than 1%
